From ChEMBL document CHEMBL3390831, “Design, synthesis, and structureactivity relationships of indole-3-carboxamides as novel water soluble cannabinoid CB1 receptor agonists” (Medchemcomm, 2010)

Tests used:
Cannabinoid receptor 1 [1] = biological target: T1, Cannabinoid receptor 1 (Homo sapiens, UniProt P21554)
Description: Agonist activity at human cannabinoid CB1 receptor expressed in CHO cells co-expressing AP-1 response element after 5 hrs by luciferase reporter gene assay

[2] = Clearance in ICR mouse plasma at 3 umol/kg, iv; assay type: ADME, cell-free
[3] = Elimination half life in ICR mouse plasma at 3 umol/kg, iv; assay type: ADME, cell-free; details: read-out: beta t1/2 (converted)
Mus musculus [4] = test: Antinociceptive activity in iv dosed ICR mouse assessed as time taken for tail flick latency to return to within mean plus two standard deviations of baseline value following twice ED50 dose by tail flick latency test; assay type: functional
Mus musculus [5] = test: Antinociceptive activity in ICR mouse assessed as inhibition of time spent licking formalin injected paw at 0.01 umol/kg, iv after 5 to 10 mins relative to control; assay type: functional
Mus musculus [6] = test: Antinociceptive activity in iv dosed ICR mouse assessed as inhibition of time spent licking formalin injected paw after 5 to 30 mins; assay type: functional, organism-based
[7] = Tmax in ICR mouse plasma at 3 umol/kg, iv; assay type: ADME, cell-free
Mus musculus [8] = test: Antinociceptive activity in ICR mouse assessed as inhibition of time spent licking formalin injected paw at 0.03 umol/kg, iv after 20 to 30 mins relative to control; assay type: functional
Mus musculus [9] = test: Antinociceptive activity in ICR mouse assessed as inhibition of time spent licking formalin injected paw at 0.1 umol/kg, iv after 5 to 10 mins relative to control; assay type: functional
Mus musculus [10] = test: Antinociceptive activity in ICR mouse assessed as inhibition of time spent licking formalin injected paw at 0.3 umol/kg, iv after 20 to 30 mins relative to control; assay type: functional
Mus musculus [11] = test: Antinociceptive activity in ICR mouse assessed as inhibition of time spent licking formalin injected paw at 0.03 umol/kg, iv after 5 to 10 mins relative to control; assay type: functional
Brain = test: AUC (0 to 1 hr) in ICR mouse brain at 3 umol/kg, iv; assay type: ADME, tissue-based; parameters: time < 1 hr, dose 3 umol/kg, route intravenous; details: in vivo
[12] = Tmax in ICR mouse brain at 3 umol/kg, iv; assay type: ADME, tissue-based
[13] = Aqueous solubility of the compound in phosphate buffered saline at pH 6.9 by shake-flask method; assay type: physicochemical
[14] = AUC in ICR mouse plasma at 3 umol/kg, iv; assay type: ADME, cell-free
Mus musculus [15] = test: Antinociceptive activity in ICR mouse assessed as inhibition of time spent licking formalin injected paw at 0.01 umol/kg, iv after 20 to 30 mins relative to control; assay type: functional
Mus musculus [16] = test: Antinociceptive activity in ICR mouse assessed as increase of tail flick latency at 0.2 umol/kg, iv after 20 to 60 mins by tail flick latency test relative to control; assay type: functional
[17] = Cmax in ICR mouse plasma at 3 umol/kg, iv; assay type: ADME, cell-free; parameters: dose 3 umol/kg, route intravenous
[18] = Ratio of Cmax in brain to plasma in ICR mouse at 3 umol/kg, iv; assay type: ADME, cell-free; details: brain and plasma, read-out: BPR
Cannabinoid receptor 1 [19] = biological target: T1, Cannabinoid receptor 1; test: biochemical
[20] = Aqueous solubility of the compound in citrate buffer at pH 4.9 by shake-flask method; assay type: physicochemical
[21] = Intrinsic clearance in human liver microsomes; assay type: ADME; details: read-out: CLH
Homo sapiens [22] = species: Homo sapiens; test: Selectivity ratio of Ki for human ERG to Ki for human cannabinoid CB1 receptor
Mus musculus [23] = test: Antinociceptive activity in ICR mouse assessed as increase of tail flick latency at 0.4 umol/kg, iv after 20 to 60 mins by tail flick latency test relative to control; assay type: functional
Mus musculus [24] = test: Antinociceptive activity in ICR mouse assessed as inhibition of time spent licking formalin injected paw at 0.3 umol/kg, iv after 5 to 10 mins relative to control; assay type: functional
Mus musculus [25] = test: Antinociceptive activity in iv dosed ICR mouse assessed as increase of tail flick latency after 20 to 60 mins by tail flick latency test; assay type: functional, organism-based
[26] = Intrinsic clearance in mouse liver microsomes; assay type: ADME; details: read-out: CLH
[27] = Cmax in ICR mouse brain at 3 umol/kg, iv; assay type: ADME, tissue-based; parameters: dose 3 umol/kg, route intravenous
[28] = Volume of distribution at steady state in ICR mouse plasma at 3 umol/kg, iv; assay type: ADME, cell-free; details: read-out: Vdss
Mus musculus [29] = test: Antinociceptive activity in ICR mouse assessed as increase of tail flick latency at 1 umol/kg, iv after 20 to 60 mins by tail flick latency test relative to control; assay type: functional
Mus musculus [30] = test: Antinociceptive activity in ICR mouse assessed as inhibition of time spent licking formalin injected paw at 0.1 umol/kg, iv after 20 to 30 mins relative to control; assay type: functional
Homo sapiens [31] = species: Homo sapiens; test: Selectivity ratio of Ki for human ERG to Ki for human cannabinoid CB2 receptor
Cannabinoid receptor 2 = Cannabinoid receptor 2 (Homo sapiens, UniProt P34972); test: Displacement of [3H]-CP55940 from human cannabinoid CB2 receptor expressed in Sf9 insect cells after 70 mins by scintillation counting
Cannabinoid receptor 2, sequence (P34972 whole entry): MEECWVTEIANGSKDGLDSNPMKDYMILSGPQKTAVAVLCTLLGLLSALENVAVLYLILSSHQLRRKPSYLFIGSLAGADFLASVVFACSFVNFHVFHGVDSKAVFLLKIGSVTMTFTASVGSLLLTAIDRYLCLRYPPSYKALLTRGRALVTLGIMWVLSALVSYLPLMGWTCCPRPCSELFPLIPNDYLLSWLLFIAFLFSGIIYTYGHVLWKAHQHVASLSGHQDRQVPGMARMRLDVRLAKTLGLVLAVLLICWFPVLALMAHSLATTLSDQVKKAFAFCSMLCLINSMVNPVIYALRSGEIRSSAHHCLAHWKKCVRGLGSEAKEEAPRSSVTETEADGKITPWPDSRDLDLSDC

[32] = Aqueous solubility of the compound in phosphate buffered saline at pH 7.1 by shake-flask method; assay type: physicochemical
[33] = Aqueous solubility of the compound in citrate buffer at pH 5 by shake-flask method; assay type: physicochemical

T1 sequence (P21554 whole entry): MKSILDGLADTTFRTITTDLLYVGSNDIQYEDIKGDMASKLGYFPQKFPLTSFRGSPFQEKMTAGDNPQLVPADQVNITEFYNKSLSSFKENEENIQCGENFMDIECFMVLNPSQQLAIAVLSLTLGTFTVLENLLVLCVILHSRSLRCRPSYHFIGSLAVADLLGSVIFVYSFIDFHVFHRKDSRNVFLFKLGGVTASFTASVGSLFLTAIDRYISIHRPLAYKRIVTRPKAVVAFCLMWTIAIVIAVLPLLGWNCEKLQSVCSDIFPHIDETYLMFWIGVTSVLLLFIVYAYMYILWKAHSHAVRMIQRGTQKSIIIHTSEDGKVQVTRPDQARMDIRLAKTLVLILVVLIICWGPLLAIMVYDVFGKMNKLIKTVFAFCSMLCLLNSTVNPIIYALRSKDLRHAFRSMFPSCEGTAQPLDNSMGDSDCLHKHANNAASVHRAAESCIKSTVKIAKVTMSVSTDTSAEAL

CCN1CCN(C(=O)c2cn(CC3CCCCC3)c3cc(OC)ccc23)CC1
EC50 (Cannabinoid receptor 1 [1]): 158 nM

O=C(Cc1ccccc1)N/N=C1\C(=O)N(CC2CCCCC2)c2cc(OCCN3CCOCC3)ccc21
EC50 (Cannabinoid receptor 1 [1]): 63.1 nM

COc1cccc2c(C(=O)N3CCN(C)[C@@H](C)C3)cn(CC3CCCCC3)c12.Cl
clearance [2]: 77.3 mL/min/kg | half-life [3]: 24.6 min | Time (Mus musculus [4]): 90 min | inhibition in vivo at 0.01 µmol/kg (Mus musculus [5]): 25.7% | inhibition (Mus musculus [6]): Dose-dependent effect | Tmax [7]: 3 min | inhibition in vivo at 0.03 µmol/kg (Mus musculus [8]): 79.7% | inhibition in vivo at 0.1 µmol/kg (Mus musculus [9]): 99% | inhibition in vivo at 0.3 µmol/kg (Mus musculus [10]): 100% | inhibition in vivo at 0.03 µmol/kg (Mus musculus [11]): 66% | AUC (Brain): 804 ng·h/g | Tmax [12]: 10.2 min | solubility thermodynamic [13]: 129 µg/mL | AUC [14]: 248 ng·h/mL | inhibition in vivo at 0.01 µmol/kg (Mus musculus [15]): 49.2% | MPE (Mus musculus [16]): 18.3% | Cmax [17]: 620 ng/mL | Kp [18]: 4 | Ki (Cannabinoid receptor 1 [19]): 1.26 nM | solubility thermodynamic [20]: 2810 µg/mL | microsomal CLint [21]: > 270 µL/min/mg | Ratio Ki (Homo sapiens [22]): > 100 | MPE (Mus musculus [23]): 50.1% | inhibition in vivo at 0.3 µmol/kg (Mus musculus [24]): 100% | Activity (Mus musculus [25]): Dose-dependent effect | microsomal CLint [26]: > 270 µL/min/mg | Cmax [27]: 2460 ng/g | Vd [28]: 2.1 L/kg | MPE (Mus musculus [29]): 100% | inhibition in vivo at 0.1 µmol/kg (Mus musculus [30]): 93.4% | Ratio Ki (Homo sapiens [31]): > 100 | Ki (Cannabinoid receptor 2): 1.58 nM

CCN1CCN(C(=O)c2cn(CC3CCCCC3)c3ccc(Cl)cc23)CC1
EC50 (Cannabinoid receptor 1 [1]): 1260 nM

Cc1ccc2c(c1)c(C(=O)N1CCN(C)CC1)cn2CC1CCCCC1
EC50 (Cannabinoid receptor 1 [1]): 2000 nM

Cc1cccc2c1c(C(=O)N1CCN(C)CC1)cn2CC1CCCCC1
EC50 (Cannabinoid receptor 1 [1]): > 3160 nM

CCN1CCN(C(=O)c2cn(CC3CCCCC3)c3cccc(F)c23)CC1
EC50 (Cannabinoid receptor 1 [1]): 251 nM

CCN1CCN(C(=O)c2cn(CC3CCCCC3)c3c(Cl)cccc23)CC1
EC50 (Cannabinoid receptor 1 [1]): 501 nM

CCN1CCN(C(=O)c2cn(CC3CCCCC3)c3c(OC)cccc23)CC1(C)C.Cl
solubility thermodynamic [32]: 181 µg/mL | EC50 (Cannabinoid receptor 1 [1]): 126 nM | solubility thermodynamic [33]: 3830 µg/mL

Cc1ccc2c(C(=O)N3CCN(C)CC3)cn(CC3CCCCC3)c2c1
EC50 (Cannabinoid receptor 1 [1]): 316 nM

CCN1CCN(C(=O)c2cn(CC3CCCCC3)c3ccc(F)cc23)CC1
EC50 (Cannabinoid receptor 1 [1]): 501 nM

CCN1CCN(C(=O)c2cn(CC3CCCCC3)c3cc(F)ccc23)CC1
EC50 (Cannabinoid receptor 1 [1]): 251 nM

CN1CCN(C(=O)c2cn(CC3CCCCC3)c3ccccc23)CC1
EC50 (Cannabinoid receptor 1 [1]): 501 nM

COc1cccc2c(C(=O)N3CCN(C)[C@H](C)C3)cn(CC3CCCCC3)c12.Cl
solubility thermodynamic [32]: 88 µg/mL | EC50 (Cannabinoid receptor 1 [1]): 126 nM | solubility thermodynamic [33]: 2860 µg/mL

CCN1CCN(C(=O)c2cn(CC3CCCCC3)c3c(C)cccc23)CC1
EC50 (Cannabinoid receptor 1 [1]): 200 nM

CN(C)CCN(C)C(=O)c1cn(CC2CCCCC2)c2ccccc12
EC50 (Cannabinoid receptor 1 [1]): > 3160 nM

O=C(N/N=C1\C(=O)N(Cc2ccccc2)c2ccccc21)c1ccccc1
EC50 (Cannabinoid receptor 1 [1]): 631 nM
